The values below come from patent publication US20260263529A1, “BIOENGINEERED COLON-SPECIFIC IMUNE NICHE FOR THE TREATMENT OF ULCERATIVE COLITIS” (THE BOARD OF REGENTS OF THE UNIVERSITY OF TEXAS SYSTEM, priority 2023, published 2026).

Data set [1] deals with B16OVA tumor-bearing mice. In words: Copanlisib-triggered colitis in B16OVA tumor model. It counts as in vivo, C57BL/6 mice. The conditions noted are these: copanlisib 25 mg/kg i.p. The method, then: B16F10, B16OVA, and MC38 xenograft tumors were inoculated into healthy C57BL/6 mice (female, 7 to 8 weeks old) through s.c. inoculation of B16F10 cells (2.5×10^5 cells/mouse) in serum-free DMEM, B16OVA cells (2.5×10^5 cells/mouse) in serum-free RPMI 1640 culture medium, and MC38 cells (5×10^5 cells/mouse) in serum-free DMEM in the right flank. Tumor volume (volume=0.5×a×b^2, where a is the large diameter and b is the small diameter) was measured every 2 to 3 days from day 7 after the tumor was inoculated.
For the COP-triggered colitis study in the B16OVA tumor model, COP treatment was provided by i.p. administration of COP (25 mg/kg, in saline) at days 6, 8, 10, 12, 14, 16 and 18 after tumor inoculation. Colitis was induced by feeding the tumor-bearing mice 3% DSS at day 14 for 4 days. For the colitis treatment group, mice received a single s.c. treatment with COMBO COIN at day 18. Bodyweight and DAI scores were monitored every 2 or 3 days. Mice were euthanized at 22 days post-inoculation. Colons were preserved by trained veterinary technicians at the UTSW ARC Diagnostic Laboratory without prior knowledge of the treatment. The lengths of preserved colons were measured and fixed with 10% NBF for 24 h. Fixed specimens were kept in 70% ethanol and transferred to the UTSW Histo Pathology Core for histological study (H&E, Ki67 and TUNEL stains).

The nature of data set [2]: Aqueous electrophoresis (zeta potential). It counts as physicochemical. The conditions noted are these: dispersed in 1X PBS, diluted 100 times with deionized water, pH 6.8-8.0, 25° C. The method, then:
Sphere-equivalent intensity-average diameters (Dh) and zeta potentials of all NF samples were measured in a Malvern Zetasizer Pro instrument.

In the case of `COc1c(OCCCN2CCOCC2)ccc2c1N=C(NC(=O)c1cnc(N)nc1)N1CCN=C21` [Copanlisib, copanlisib], in data set [1], the B16OVA tumor growth result is “effectively inhibited B16OVA tumor growth” and the “colitis symptoms induced by cancer treatment” value is “induced mild colitis symptoms”. Consider ACESPLKRQCGGG [TGF-β1 mimetic peptide], for which the Average zeta potential result in data set [2] is “+22.1 ± 3.1 mV”.
